From ChEMBL document CHEMBL1201862, “PubChem BioAssay data set” (2004)
Where “and” joins values, the source holds several entries; their conditions need not be identical. Identical values can stand only once. Calls of active or inactive are those of the source.

Experiments:
[1] = target: DNA dC->dU-editing enzyme APOBEC-3G (Homo sapiens, UniProt Q9HC16); assay: APOBEC3G deaminase inhibitors, SAR follow-up, biochemical, fluorescence, single-stranded DNA substrate (AID 602136); assay type: functional; conditions: read-out: IC50_Mean
[2] = target: DNA dC->dU-editing enzyme APOBEC-3A (Homo sapiens, UniProt P31941); assay: SAR analysis of small molecule inhibitors of APOBEC3A DNA Deaminase via a fluorescence-based single-stranded DNA deaminase assay.; assay type: functional; conditions: read-out: IC50_Mean
[3] = THP-1 cell cytotoxicity, cytotoxicity control, set 4 (AID 504911); assay type: functional; conditions: Mycobacterium tuberculosis
[4] = THP-1 cell cytotoxicity, dose response, cytotoxicity control, set 3 (AID 504852); assay type: functional; conditions: Mycobacterium tuberculosis
[5] = Vero cell cytotoxicity, dose response, cytotoxicity control for M. tuberculosis growth inhibitor project, Vero cells, purified and synthesized compounds, set 4 (AID 504854); assay type: functional; conditions: Mycobacterium tuberculosis
[6] = target: T1, Mitochondrial peptide methionine sulfoxide reductase (Bos taurus, UniProt P54149); assay: Absorbance-based biochemical high throughput dose response assay for activators of Methionine sulfoxide reductase A (MsrA).; assay type: functional
T1 sequence (P54149 whole entry): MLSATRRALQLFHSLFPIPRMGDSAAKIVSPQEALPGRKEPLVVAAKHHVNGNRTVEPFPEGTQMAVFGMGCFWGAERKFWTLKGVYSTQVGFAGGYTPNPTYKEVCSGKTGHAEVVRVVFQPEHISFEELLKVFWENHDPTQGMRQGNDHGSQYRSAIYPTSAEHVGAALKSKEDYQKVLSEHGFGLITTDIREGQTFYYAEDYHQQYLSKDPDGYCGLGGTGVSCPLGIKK

[7] = target: Dual specificity tyrosine-phosphorylation-regulated kinase 1B (Homo sapiens, UniProt Q9Y463); assay: Navigating the Kinome. Panel member name: DYRK1B; assay type: functional
[8] = target: Serine/threonine-protein kinase 3 (Homo sapiens, UniProt Q13188); assay type: functional;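 note: measured as one member of a kinome-wide kinase panel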
[9] = target: Mitogen-activated protein kinase 13 (Homo sapiens, UniProt O15264); assay type: functional
[10] = target: T2, Apoptotic protease-activating factor 1 (Homo sapiens, UniProt O14727); assay: SAR analysis of small molecule Activators of Apaf-1 in a Fluorescent assay.; assay type: functional; conditions: read-out: EC50_Mean;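 note: caspase-3 cleavage of fluorogenic Rh110 DEVD substrate downstream of apoptosome activation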
T2 sequence (O14727 whole entry): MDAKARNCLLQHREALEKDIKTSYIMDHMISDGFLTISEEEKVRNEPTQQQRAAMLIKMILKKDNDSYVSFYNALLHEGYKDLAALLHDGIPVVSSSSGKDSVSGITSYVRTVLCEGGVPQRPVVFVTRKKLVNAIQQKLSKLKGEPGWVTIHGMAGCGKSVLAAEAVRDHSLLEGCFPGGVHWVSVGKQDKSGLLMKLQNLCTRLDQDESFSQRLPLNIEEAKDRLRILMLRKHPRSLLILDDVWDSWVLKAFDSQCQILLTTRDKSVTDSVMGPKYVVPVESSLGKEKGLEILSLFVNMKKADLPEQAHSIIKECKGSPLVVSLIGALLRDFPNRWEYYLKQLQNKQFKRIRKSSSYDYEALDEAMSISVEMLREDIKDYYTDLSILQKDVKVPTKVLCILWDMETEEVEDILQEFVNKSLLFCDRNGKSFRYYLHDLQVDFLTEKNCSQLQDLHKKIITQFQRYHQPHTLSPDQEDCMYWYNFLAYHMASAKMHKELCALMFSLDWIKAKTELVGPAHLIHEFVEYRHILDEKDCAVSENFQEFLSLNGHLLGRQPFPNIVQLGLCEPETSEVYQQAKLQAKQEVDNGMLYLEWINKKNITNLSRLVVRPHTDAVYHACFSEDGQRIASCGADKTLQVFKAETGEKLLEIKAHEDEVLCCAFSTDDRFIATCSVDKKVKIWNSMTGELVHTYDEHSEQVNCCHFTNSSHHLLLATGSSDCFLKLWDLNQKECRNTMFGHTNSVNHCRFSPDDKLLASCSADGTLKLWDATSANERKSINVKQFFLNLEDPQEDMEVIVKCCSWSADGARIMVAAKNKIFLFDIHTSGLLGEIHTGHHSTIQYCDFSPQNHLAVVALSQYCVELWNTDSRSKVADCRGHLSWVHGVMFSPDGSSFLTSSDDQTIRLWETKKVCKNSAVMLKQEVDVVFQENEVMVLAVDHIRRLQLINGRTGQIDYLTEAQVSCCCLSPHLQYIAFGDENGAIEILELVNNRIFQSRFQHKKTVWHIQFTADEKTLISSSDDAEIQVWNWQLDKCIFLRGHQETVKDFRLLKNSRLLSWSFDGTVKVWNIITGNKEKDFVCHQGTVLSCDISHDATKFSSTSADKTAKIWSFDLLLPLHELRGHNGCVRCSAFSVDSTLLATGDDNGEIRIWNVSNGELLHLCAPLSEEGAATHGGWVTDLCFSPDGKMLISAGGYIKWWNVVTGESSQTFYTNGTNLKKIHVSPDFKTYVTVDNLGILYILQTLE

[11] = target: Ras and Rab interactor 1/Tyrosine-protein kinase ABL1 (Homo sapiens, UniProt P00519+Q13671); assay type: functional;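 note: biochemical TR-FRET dose-response test measuring inhibition of binding between Rin1 and Abl proteins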
[12] = target: Serine/threonine-protein kinase PLK3 (Homo sapiens, UniProt Q9H4B4); assay type: functional
[13] = target: Casein kinase II subunit alpha (Homo sapiens, UniProt P68400); assay type: functional
[14] = target: Multidrug resistance protein CDR2 (Candida albicans (strain SC5314 / ATCC MYA-2876) (Yeast), UniProt P78595); assay: CaCDR2 efflux pump inhibitors in yeast, dose response, S. cerevisiae AD1-8u, singleplex, Cherry Pick2 set (AID 623994); assay type: functional; conditions: read-out: EC50_MICROM
[15] = target: DNA (cytosine-5)-methyltransferase 1 (Homo sapiens, UniProt P26358); assay: DNMT1 methyltransferase inhibitors, confirmation, biochemical, fluorescent molecular beacon (AID 602386); assay type: functional
[16] = target: T3, Histone-lysine N-methyltransferase NSD2 (Homo sapiens, UniProt O96028); assay type: biochemical
T3 sequence (O96028 whole entry): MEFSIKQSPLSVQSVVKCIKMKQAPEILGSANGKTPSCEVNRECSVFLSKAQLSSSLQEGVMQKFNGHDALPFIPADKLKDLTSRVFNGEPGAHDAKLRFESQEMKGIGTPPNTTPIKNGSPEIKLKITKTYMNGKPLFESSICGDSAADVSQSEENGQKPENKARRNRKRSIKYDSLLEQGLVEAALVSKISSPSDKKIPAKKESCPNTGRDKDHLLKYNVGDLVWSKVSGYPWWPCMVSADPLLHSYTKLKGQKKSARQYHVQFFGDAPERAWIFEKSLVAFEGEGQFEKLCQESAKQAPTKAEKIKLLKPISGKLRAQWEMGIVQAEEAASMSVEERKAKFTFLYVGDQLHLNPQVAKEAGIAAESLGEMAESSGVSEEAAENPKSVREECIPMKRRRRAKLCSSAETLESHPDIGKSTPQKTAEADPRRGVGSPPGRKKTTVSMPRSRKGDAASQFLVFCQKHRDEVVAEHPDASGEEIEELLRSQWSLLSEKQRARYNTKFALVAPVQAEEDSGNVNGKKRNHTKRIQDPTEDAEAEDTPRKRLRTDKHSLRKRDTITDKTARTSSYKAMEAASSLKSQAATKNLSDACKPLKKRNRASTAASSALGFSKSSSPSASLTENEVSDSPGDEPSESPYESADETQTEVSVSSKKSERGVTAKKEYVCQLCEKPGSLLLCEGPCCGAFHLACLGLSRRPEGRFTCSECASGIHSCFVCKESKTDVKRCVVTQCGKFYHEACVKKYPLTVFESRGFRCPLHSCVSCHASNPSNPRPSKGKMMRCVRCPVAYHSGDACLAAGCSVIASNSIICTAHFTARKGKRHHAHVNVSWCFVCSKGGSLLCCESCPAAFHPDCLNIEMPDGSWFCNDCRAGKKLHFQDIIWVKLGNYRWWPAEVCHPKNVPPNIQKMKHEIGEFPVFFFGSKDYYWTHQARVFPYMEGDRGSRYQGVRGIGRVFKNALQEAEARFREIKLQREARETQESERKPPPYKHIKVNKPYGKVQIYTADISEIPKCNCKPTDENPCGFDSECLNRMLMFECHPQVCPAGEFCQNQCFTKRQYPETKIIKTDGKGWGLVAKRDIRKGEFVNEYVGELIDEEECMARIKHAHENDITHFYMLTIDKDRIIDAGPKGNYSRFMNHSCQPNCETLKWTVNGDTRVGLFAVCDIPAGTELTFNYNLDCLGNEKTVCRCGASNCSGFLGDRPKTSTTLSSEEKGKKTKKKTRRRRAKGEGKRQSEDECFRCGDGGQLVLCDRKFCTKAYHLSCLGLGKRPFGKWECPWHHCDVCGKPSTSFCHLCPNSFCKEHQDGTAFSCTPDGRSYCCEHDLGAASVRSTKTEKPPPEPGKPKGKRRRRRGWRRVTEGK

Sequence of DNA dC->dU-editing enzyme APOBEC-3G (Q9HC16 whole entry): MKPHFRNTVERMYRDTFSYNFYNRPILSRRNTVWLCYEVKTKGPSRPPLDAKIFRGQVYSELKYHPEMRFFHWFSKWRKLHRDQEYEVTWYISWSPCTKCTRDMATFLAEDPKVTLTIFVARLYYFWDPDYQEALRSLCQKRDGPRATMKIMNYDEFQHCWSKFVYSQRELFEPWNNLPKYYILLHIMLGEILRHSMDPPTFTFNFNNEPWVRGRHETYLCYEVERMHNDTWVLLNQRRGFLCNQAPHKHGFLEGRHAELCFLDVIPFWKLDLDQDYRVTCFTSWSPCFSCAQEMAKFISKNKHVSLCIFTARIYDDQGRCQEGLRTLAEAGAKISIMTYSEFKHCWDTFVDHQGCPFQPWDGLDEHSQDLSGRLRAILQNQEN
Sequence of Serine/threonine-protein kinase 3 (Q13188 whole entry): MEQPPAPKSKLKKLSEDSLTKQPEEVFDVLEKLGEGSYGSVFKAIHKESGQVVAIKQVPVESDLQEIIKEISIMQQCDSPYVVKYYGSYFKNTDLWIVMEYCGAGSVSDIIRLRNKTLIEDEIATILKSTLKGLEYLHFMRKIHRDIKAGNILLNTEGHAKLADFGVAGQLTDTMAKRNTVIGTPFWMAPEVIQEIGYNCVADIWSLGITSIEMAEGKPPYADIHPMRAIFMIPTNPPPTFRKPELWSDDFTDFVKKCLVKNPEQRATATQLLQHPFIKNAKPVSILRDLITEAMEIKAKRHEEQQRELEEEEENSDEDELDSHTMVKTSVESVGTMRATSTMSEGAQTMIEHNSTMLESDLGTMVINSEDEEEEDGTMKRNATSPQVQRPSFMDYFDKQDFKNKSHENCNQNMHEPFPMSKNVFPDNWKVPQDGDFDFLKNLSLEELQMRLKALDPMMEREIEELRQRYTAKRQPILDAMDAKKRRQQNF
Sequence of DNA dC->dU-editing enzyme APOBEC-3A (P31941 whole entry): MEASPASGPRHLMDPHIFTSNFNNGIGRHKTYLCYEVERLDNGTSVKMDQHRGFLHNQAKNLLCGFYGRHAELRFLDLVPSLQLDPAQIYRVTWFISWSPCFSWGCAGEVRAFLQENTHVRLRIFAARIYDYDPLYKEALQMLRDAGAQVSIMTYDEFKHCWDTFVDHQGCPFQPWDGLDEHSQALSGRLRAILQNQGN
Sequence of Serine/threonine-protein kinase PLK3 (Q9H4B4 whole entry): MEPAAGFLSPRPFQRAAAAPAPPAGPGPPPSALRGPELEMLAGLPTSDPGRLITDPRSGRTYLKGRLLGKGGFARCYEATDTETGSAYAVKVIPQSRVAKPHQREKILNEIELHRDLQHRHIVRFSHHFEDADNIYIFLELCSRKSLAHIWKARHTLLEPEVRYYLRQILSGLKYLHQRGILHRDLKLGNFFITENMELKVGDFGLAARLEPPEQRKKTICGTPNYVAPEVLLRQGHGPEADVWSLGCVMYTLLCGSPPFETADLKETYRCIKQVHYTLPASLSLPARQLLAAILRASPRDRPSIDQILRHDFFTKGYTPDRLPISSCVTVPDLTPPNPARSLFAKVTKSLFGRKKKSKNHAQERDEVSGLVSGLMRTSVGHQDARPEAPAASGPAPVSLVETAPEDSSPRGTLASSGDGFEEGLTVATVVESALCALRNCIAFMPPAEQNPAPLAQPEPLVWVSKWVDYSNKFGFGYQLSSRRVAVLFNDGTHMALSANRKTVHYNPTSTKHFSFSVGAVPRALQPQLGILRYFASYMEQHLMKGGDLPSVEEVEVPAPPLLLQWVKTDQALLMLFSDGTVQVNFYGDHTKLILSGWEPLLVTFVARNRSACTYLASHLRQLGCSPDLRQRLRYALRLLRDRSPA
Sequence of DNA (cytosine-5)-methyltransferase 1 (P26358 whole entry): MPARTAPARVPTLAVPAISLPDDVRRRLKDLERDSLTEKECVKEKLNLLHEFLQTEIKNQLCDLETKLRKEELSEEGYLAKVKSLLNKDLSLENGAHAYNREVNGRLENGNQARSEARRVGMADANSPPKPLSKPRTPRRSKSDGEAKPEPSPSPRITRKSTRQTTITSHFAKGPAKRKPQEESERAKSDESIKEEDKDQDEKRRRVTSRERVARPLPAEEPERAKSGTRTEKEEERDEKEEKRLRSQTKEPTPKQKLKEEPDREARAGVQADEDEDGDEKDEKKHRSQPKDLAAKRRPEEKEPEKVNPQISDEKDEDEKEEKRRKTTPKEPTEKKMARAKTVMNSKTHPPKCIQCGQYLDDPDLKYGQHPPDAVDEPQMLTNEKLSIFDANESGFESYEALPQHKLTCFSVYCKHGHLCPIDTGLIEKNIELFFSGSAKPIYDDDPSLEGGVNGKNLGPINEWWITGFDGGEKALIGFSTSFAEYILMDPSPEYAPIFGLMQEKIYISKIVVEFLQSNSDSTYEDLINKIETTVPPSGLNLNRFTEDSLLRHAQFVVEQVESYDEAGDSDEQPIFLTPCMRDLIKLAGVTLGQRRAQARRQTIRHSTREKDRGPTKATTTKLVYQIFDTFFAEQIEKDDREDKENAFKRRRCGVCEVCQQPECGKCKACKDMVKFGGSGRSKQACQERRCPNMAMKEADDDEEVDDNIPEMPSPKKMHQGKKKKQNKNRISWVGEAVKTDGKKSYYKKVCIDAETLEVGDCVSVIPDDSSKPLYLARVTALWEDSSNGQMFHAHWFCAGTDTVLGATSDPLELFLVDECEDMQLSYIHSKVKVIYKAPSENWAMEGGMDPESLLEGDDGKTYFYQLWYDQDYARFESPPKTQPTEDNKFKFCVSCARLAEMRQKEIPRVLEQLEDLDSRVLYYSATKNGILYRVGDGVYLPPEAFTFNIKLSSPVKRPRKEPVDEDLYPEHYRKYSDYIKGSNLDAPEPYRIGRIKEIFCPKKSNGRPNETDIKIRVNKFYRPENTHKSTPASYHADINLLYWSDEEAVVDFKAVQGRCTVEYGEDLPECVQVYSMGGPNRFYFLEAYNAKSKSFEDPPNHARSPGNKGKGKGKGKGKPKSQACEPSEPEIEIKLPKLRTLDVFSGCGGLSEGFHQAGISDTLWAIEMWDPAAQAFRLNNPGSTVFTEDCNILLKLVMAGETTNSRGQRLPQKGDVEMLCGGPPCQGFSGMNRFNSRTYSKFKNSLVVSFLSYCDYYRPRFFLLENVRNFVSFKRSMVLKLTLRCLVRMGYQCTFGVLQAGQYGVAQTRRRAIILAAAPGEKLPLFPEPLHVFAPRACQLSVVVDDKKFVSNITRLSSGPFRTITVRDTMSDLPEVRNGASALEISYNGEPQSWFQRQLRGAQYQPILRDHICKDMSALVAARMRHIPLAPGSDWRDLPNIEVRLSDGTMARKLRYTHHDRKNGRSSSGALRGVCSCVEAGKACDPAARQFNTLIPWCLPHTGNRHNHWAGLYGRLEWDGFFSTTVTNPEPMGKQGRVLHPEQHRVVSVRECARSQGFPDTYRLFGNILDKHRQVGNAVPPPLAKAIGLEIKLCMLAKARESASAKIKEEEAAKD
Sequence of Casein kinase II subunit alpha (P68400 whole entry): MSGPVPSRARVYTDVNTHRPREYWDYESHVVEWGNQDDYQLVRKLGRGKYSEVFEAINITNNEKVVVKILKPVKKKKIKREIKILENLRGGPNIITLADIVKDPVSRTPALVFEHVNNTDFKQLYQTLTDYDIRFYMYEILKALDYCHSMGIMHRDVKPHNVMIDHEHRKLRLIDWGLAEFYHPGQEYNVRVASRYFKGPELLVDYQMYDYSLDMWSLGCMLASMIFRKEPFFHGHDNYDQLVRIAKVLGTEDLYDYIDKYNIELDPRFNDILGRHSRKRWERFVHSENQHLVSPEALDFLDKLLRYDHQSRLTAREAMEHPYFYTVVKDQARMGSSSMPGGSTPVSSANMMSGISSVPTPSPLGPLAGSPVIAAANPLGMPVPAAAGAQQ
Sequence of Dual specificity tyrosine-phosphorylation-regulated kinase 1B (Q9Y463 whole entry): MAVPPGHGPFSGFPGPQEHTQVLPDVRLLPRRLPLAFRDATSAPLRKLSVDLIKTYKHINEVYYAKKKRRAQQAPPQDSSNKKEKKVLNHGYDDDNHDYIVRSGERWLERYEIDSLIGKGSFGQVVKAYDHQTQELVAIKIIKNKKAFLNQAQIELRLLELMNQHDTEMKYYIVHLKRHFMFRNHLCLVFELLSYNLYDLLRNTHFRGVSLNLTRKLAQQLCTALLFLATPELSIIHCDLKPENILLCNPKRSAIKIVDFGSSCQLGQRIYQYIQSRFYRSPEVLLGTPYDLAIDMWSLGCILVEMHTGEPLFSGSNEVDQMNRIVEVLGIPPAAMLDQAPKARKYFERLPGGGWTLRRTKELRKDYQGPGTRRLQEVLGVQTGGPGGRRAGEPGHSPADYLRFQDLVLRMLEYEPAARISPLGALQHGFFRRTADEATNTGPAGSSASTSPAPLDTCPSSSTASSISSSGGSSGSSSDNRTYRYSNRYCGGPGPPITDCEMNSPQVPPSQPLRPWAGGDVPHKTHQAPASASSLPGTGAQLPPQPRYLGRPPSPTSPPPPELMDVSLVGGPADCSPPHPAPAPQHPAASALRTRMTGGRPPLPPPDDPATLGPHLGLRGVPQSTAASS
Sequence of Mitogen-activated protein kinase 13 (O15264 whole entry): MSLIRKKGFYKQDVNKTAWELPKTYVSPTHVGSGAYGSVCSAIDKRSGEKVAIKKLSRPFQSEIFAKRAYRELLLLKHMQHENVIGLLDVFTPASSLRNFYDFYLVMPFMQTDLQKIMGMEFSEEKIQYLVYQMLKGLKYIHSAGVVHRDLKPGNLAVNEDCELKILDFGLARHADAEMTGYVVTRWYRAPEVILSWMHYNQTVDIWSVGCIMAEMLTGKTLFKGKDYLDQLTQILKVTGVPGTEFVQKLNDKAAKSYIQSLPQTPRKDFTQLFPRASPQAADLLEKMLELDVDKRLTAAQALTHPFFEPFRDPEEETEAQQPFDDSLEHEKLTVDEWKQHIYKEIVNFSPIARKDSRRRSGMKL

With `c1cncc(-c2nc3sc4c(c3c3nncn23)CCCC4)c1` the IC50 [1] was > 99 µM (inactive) and the IC50 [2] was > 99 µM (inactive).

For `CC(Sc1nc2ccccc2c(=O)[nH]1)C(=O)NC1CCCCC1` (stereo not drawn), the CC50 [3] was > 100 µM (active), the CC50 [4] was > 100 µM (active) and the CC50 [5] was > 100 µM (active).

For `O=C(NC1CCCCC1)c1nn2c(C(F)(F)F)cc(-c3ccc(Br)cc3)nc2c1Cl`, the IC50 [1] was > 99 µM (inactive) and the IC50 [2] was > 99 µM (inactive).

With `O=c1[nH]c(=S)[nH]cc1Oc1ccc(Cl)cc1` the EC50 [6] was > 104 µM (inactive).

With `CC(Oc1cc(-c2cnn(C3CCNCC3)c2)cnc1N)c1c(Cl)ccc(F)c1Cl` (stereo not drawn) the Ki [7] was > 2.51 µM (inactive) and the Ki [8] was 3.16 µM (active) and 794 nM (active).

With `CCOc1nc(NC(=O)Cc2cc(OC)ccc2OC)cc(N)c1C#N` the Ki [9] was > 7.94 µM (inactive).

For `COc1ccc(C)c(NCC(C)C(=O)O)c1` (stereo not drawn), the EC50 [10] was > 100 µM (inactive).

For `CC[C@]12c3[nH]c4ccc(OC)cc4c3CCN1C(=O)C(CC(=O)NCc1cccc(C(F)(F)F)c1)C[C@@H]2C(=O)N1CCN(C(=O)c2ccco2)CC1` (stereo partly drawn), the IC50 [11] was 20.1 µM (inactive).

For `Nc1csc(Nc2ccccc2)n1`, the Ki [12] was 2.51 µM (active) and the Ki [13] was 10 µM (active).

For `O=C(NCCC1=CCCCC1)C1CCC(CNc2[nH]c(=S)nc3ccccc23)CC1` (stereo not drawn), the EC50 [14] was 72.6 µM (active).

In the case of `N=C1/C(=C/c2coc3ccccc3c2=O)C(=O)N=C2SC(c3ccco3)=NN12`, the IC50 [15] is reported as 11.6 µM (active) and the AC50 [16] is reported as 4.93 µM (active).
